Oligonucleotides are written 5' to 3', each unit as a sugar letter and its base; * is a phosphorothioate linkage, no mark a phosphodiester; rarer units and linkages stand in square brackets, end groups in braces. Plain capitals give the bases only. d = 2'-deoxy (DNA); r = 2'-OH (RNA)
target: MRFAP1; assay: reporter assay of Huesken 2005; settings: siRNA
Also: test concentration or dose not given here.

| Substance | normalised inhibition (eCFP-eYFP dual reporter) [%] |
| --- | --- |
| sense rArArGrArUrGrGrCrCrGrArGrArUrGrCrUrGrGdTdT / antisense rCrCrArGrCrArUrCrUrCrGrGrCrCrArUrCrUrUdCdG | 33.1 |
| sense rArArGrCrArGrCrGrGrArGrArUrGrCrGrGrCrCdTdT / antisense rGrGrCrCrGrCrArUrCrUrCrCrGrCrUrGrCrUrUdTdG | 42.8 |
| sense rArArGrGrCrCrGrArCrGrArGrArArGrGrCrGrCdTdT / antisense rGrCrGrCrCrUrUrCrUrCrGrUrCrGrGrCrCrUrUdCdT | 63.1 |
| sense rArArGrGrUrUrCrArUrArUrGrUrArGrUrCrArAdTdT / antisense rUrUrGrArCrUrArCrArUrArUrGrArArCrCrUrUdGdA | 85.4 |
| sense rArCrArArGrCrArArArGrCrArGrCrGrGrArGrAdTdT / antisense rUrCrUrCrCrGrCrUrGrCrUrUrUrGrCrUrUrGrUdCdT | 62.6 |
| sense rArCrCrUrGrArUrArArGrCrArUrUrUrGrArGrGdTdT / antisense rCrCrUrCrArArArUrGrCrUrUrArUrCrArGrGrUdCdT | 46.8 |
| sense rArCrCrUrGrArUrArGrCrUrCrCrCrUrGrArArCdTdT / antisense rGrUrUrCrArGrGrGrArGrCrUrArUrCrArGrGrUdCdA | 68.5 |
| sense rArCrCrUrGrGrGrArGrArArGrGrGrUrCrGrGrAdTdT / antisense rUrCrCrGrArCrCrCrUrUrCrUrCrCrCrArGrGrUdCdA | 77.6 |
| sense rArCrGrArCrCrUrCrGrArUrArUrGrArGrUrUrUdTdT / antisense rArArArCrUrCrArUrArUrCrGrArGrGrUrCrGrUdCdA | 70 |
| sense rArCrGrCrArGrUrGrGrArGrCrUrGrGrCrGrGrAdTdT / antisense rUrCrCrGrCrCrArGrCrUrCrCrArCrUrGrCrGrUdCdC | 76.4 |
| sense rArCrUrArUrCrUrArUrUrArUrArArCrCrUrGrCdTdT / antisense rGrCrArGrGrUrUrArUrArArUrArGrArUrArGrUdGdT | 42.2 |
| sense rArCrUrCrGrGrCrCrCrGrArGrCrUrCrGrGrUrCdTdT / antisense rGrArCrCrGrArGrCrUrCrGrGrGrCrCrGrArGrUdCdT | 61.5 |
| sense rArCrUrGrArGrArCrUrUrGrGrArGrUrUrGrGrAdTdT / antisense rUrCrCrArArCrUrCrCrArArGrUrCrUrCrArGrUdGdT | 88.7 |
| sense rArCrUrUrCrArArGrGrArArGrArGrGrCrGrUrCdTdT / antisense rGrArCrGrCrCrUrCrUrUrCrCrUrUrGrArArGrUdTdT | 82.5 |
| sense rArCrUrUrCrGrArGrCrArGrUrUrUrCrUrGrCrUdTdT / antisense rArGrCrArGrArArArCrUrGrCrUrCrGrArArGrUdCdC | 51.4 |
| sense rArGrArGrGrCrCrUrCrUrGrArGrGrArGrArGrCdTdT / antisense rGrCrUrCrUrCrCrUrCrArGrArGrGrCrCrUrCrUdAdC | 69.3 |
| sense rArGrCrUrCrGrUrGrCrGrGrCrGrGrArUrArGrAdTdT / antisense rUrCrUrArUrCrCrGrCrCrGrCrArCrGrArGrCrUdGdC | 79.7 |
| sense rArGrGrGrCrGrGrArGrArArGrGrCrCrGrArCrGdTdT / antisense rCrGrUrCrGrGrCrCrUrUrCrUrCrCrGrCrCrCrUdGdG | 23.9 |
| sense rArGrGrUrCrArArArArCrCrCrUrUrArCrCrArUdTdT / antisense rArUrGrGrUrArArGrGrGrUrUrUrUrGrArCrCrUdCdA | 85.7 |
| sense rArGrUrGrArUrGrGrCrGrArUrUrGrGrCrUrGrAdTdT / antisense rUrCrArGrCrCrArArUrCrGrCrCrArUrCrArCrUdCdA | 85.8 |
| sense rArGrUrUrUrCrUrGrCrUrGrCrCrCrGrUrCrArUdTdT / antisense rArUrGrArCrGrGrGrCrArGrCrArGrArArArCrUdGdC | 66.2 |
| sense rArUrCrCrUrUrGrCrArArUrArCrCrCrUrUrUrGdTdT / antisense rCrArArArGrGrGrUrArUrUrGrCrArArGrGrArUdCdT | 66.3 |
| sense rArUrGrGrCrGrArArGrArUrGrGrCrCrGrArGrAdTdT / antisense rUrCrUrCrGrGrCrCrArUrCrUrUrCrGrCrCrArUdCdT | 78.7 |
| sense rCrArArArArCrCrCrUrUrArCrCrArUrGrUrUrGdTdT / antisense rCrArArCrArUrGrGrUrArArGrGrGrUrUrUrUrGdAdC | 70.3 |
| sense rCrArArArGrGrArGrGrArGrArGrArUrGrUrArUdTdT / antisense rArUrArCrArUrCrUrCrUrCrCrUrCrCrUrUrUrGdGdT | 99.2 |
| sense rCrArArGrArCrGrCrArGrGrUrArGrArGrGrCrCdTdT / antisense rGrGrCrCrUrCrUrArCrCrUrGrCrGrUrCrUrUrGdAdT | 73.2 |

| Substance | normalised inhibition (eCFP-eYFP dual reporter) [%] |
| --- | --- |
| sense rCrArArGrUrUrGrGrUrArUrCrCrCrCrArUrArUdTdT / antisense rArUrArUrGrGrGrGrArUrArCrCrArArCrUrUrGdTdA | 62.5 |
| sense rCrArCrCrCrUrGrGrArGrArArGrCrUrGrArArAdTdT / antisense rUrUrUrCrArGrCrUrUrCrUrCrCrArGrGrGrUrGdTdC | 66.7 |
| sense rCrArCrUrArCrGrUrUrUrCrUrGrCrUrArUrGrGdTdT / antisense rCrCrArUrArGrCrArGrArArArCrGrUrArGrUrGdTdC | 58 |
| sense rCrArCrUrGrArGrArCrUrUrGrGrArGrUrUrGrGdTdT / antisense rCrCrArArCrUrCrCrArArGrUrCrUrCrArGrUrGdTdC | 77.6 |
| sense rCrArGrGrArGrArUrGrGrCrGrArArGrArUrGrGdTdT / antisense rCrCrArUrCrUrUrCrGrCrCrArUrCrUrCrCrUrGdCdG | 81.9 |
| sense rCrArUrArUrGrUrArGrUrCrArArGrCrUrArUrAdTdT / antisense rUrArUrArGrCrUrUrGrArCrUrArCrArUrArUrGdAdA | 101 |
| sense rCrArUrGrCrArGrCrArArUrGrGrCrArGrArArGdTdT / antisense rCrUrUrCrUrGrCrCrArUrUrGrCrUrGrCrArUrGdGdA | 79.1 |
| sense rCrCrArGrArGrArGrCrCrUrUrUrGrUrUrUrUrCdTdT / antisense rGrArArArArCrArArArGrGrCrUrCrUrCrUrGrGdTdT | 89.6 |
| sense rCrCrCrArGrGrGrCrGrGrArGrArArGrGrCrCrGdTdT / antisense rCrGrGrCrCrUrUrCrUrCrCrGrCrCrCrUrGrGrGdGdC | 65.6 |
| sense rCrCrCrCrUrCrUrGrUrCrUrUrCrArCrUrCrUrGdTdT / antisense rCrArGrArGrUrGrArArGrArCrArGrArGrGrGrGdAdA | 87.5 |
| sense rCrCrCrUrGrUrGrArCrArCrUrGrArGrArCrUrUdTdT / antisense rArArGrUrCrUrCrArGrUrGrUrCrArCrArGrGrGdAdC | 65.9 |
| sense rCrCrGrArGrGrArGrGrUrGrGrArGrGrUrGrCrUdTdT / antisense rArGrCrArCrCrUrCrCrArCrCrUrCrCrUrCrGrGdGdC | 58.9 |
| sense rCrCrGrGrGrGrCrArArGrCrUrGrUrGrGrGrArGdTdT / antisense rCrUrCrCrCrArCrArGrCrUrUrGrCrCrCrCrGrGdTdT | 44.9 |
| sense rCrCrUrGrCrArArUrGrGrArCrCrCrArArArArCdTdT / antisense rGrUrUrUrUrGrGrGrUrCrCrArUrUrGrCrArGrGdTdT | 86.2 |
| sense rCrCrUrGrCrArGrGrGrCrGrCrGrGrGrCrGrGrCdTdT / antisense rGrCrCrGrCrCrCrGrCrGrCrCrCrUrGrCrArGrGdTdG | 60.9 |
| sense rCrGrGrArArCrCrCrGrGrUrArUrGrGrGrArGrAdTdT / antisense rUrCrUrCrCrCrArUrArCrCrGrGrGrUrUrCrCrGdTdT | 49.8 |
| sense rCrGrGrArCrGrCrGrCrGrCrCrCrGrUrGrCrGrCdTdT / antisense rGrCrGrCrArCrGrGrGrCrGrCrGrCrGrUrCrCrGdCdG | 19.7 |
| sense rCrGrGrCrGrGrArArGrUrUrUrUrGrArArGrArCdTdT / antisense rGrUrCrUrUrCrArArArArCrUrUrCrCrGrCrCrGdCdT | 94.8 |
| sense rCrGrGrGrGrCrArArGrCrUrGrUrGrGrGrArGrAdTdT / antisense rUrCrUrCrCrCrArCrArGrCrUrUrGrCrCrCrCrGdGdT | 69.6 |
| sense rCrGrGrUrArUrGrGrGrArGrArUrGrArGrGrUrCdTdT / antisense rGrArCrCrUrCrArUrCrUrCrCrCrArUrArCrCrGdGdG | 84.8 |
| sense rCrUrArGrGrArCrUrGrArUrGrArCrCrUrGrGrGdTdT / antisense rCrCrCrArGrGrUrCrArUrCrArGrUrCrCrUrArGdCdC | 63.1 |
| sense rCrUrArUrCrUrArUrUrArUrArArCrCrUrGrCrCdTdT / antisense rGrGrCrArGrGrUrUrArUrArArUrArGrArUrArGdTdG | 90.4 |
| sense rCrUrArUrUrArUrArArCrCrUrGrCrCrUrGrArUdTdT / antisense rArUrCrArGrGrCrArGrGrUrUrArUrArArUrArGdAdT | 88 |
| sense rCrUrCrArArCrCrArCrCrUrGrCrArGrGrGrCrGdTdT / antisense rCrGrCrCrCrUrGrCrArGrGrUrGrGrUrUrGrArGdAdG | 43.2 |
| sense rCrUrCrUrGrArGrGrArGrArGrCrGrCrUrCrUrCdTdT / antisense rGrArGrArGrCrGrCrUrCrUrCrCrUrCrArGrArGdGdC | 48.8 |
| sense rCrUrGrArCrArCrUrArCrGrUrUrUrCrUrGrCrUdTdT / antisense rArGrCrArGrArArArCrGrUrArGrUrGrUrCrArGdTdG | 99.3 |

— the OligoGym collection
